Laboratory results taken from the CheMixHub viscosity set.
Several values for one entry are separate records, joined by “and”; a condition that tells them apart may be missing. Identical values can stand only once.

Test: xn = mol fraction of the nth substance listed

O=C1OCCO1 + CS(C)=O
313.15 K, 101.33 kPa
Settings | viscosity [mPa·s]
x2 = 0.0721 | 1.862
x2 = 0.1744 | 1.786
x2 = 0.2849 | 1.709
x2 = 0.3698 | 1.656
x2 = 0.469 | 1.611
x2 = 0.5668 | 1.571
x2 = 0.6744 | 1.538
x2 = 0.7969 | 1.515
x2 = 0.8782 | 1.51
x2 = 0.9732 | 1.511

CCOC(=O)CC + C1CCCCC1
viscosity [mPa·s], 101 kPa
Settings | 298.15 K | 308.15 K
x1 = 0.0526 | 0.835 | 0.709
x1 = 0.1334 | 0.767 | 0.65
x1 = 0.2568 | 0.686 | 0.579
x1 = 0.3148 | 0.656 | 0.553
x1 = 0.4538 | 0.603 | 0.505
x1 = 0.4986 | 0.59 | 0.493
x1 = 0.5085 | 0.588 | 0.491
x1 = 0.6558 | 0.561 | 0.465
x1 = 0.7181 | 0.556 | 0.459
x1 = 0.8504 | 0.556 | 0.456
x1 = 0.9312 | 0.564 | 0.459

Cc1ccccc1O + C[N+](C)(C)CCO.[Cl-]
298.15 K, 101.33 kPa
Settings | viscosity
x1 = 0.7 | 137.1 mPa·s
x1 = 0.8 | 73.25 mPa·s and 56.18 mPa·s and 47.22 mPa·s
x1 = 0.9 | 38.19 mPa·s

CC(C)CO + CCCCO
101 kPa
Settings | viscosity [mPa·s]
293.15 K, x2 = 0.2 | 3.68
293.15 K, x2 = 0.4 | 3.434
293.15 K, x2 = 0.6 | 3.243
293.15 K, x2 = 0.8 | 3.078
298.15 K, x2 = 0.0982 | 3.238
298.15 K, x2 = 0.2007 | 3.111
298.15 K, x2 = 0.301 | 3.016
298.15 K, x2 = 0.4046 | 2.935
298.15 K, x2 = 0.5026 | 2.859
298.15 K, x2 = 0.6261 | 2.772
298.15 K, x2 = 0.7024 | 2.726
298.15 K, x2 = 0.8001 | 2.672
298.15 K, x2 = 0.9178 | 2.608
313.15 K, x2 = 0.2 | 2.022
313.15 K, x2 = 0.4 | 1.937
313.15 K, x2 = 0.6 | 1.872
313.15 K, x2 = 0.8 | 1.818

CC(C)CO + c1ccccc1
303 K, 101.3 kPa
Settings | viscosity [mPa·s]
x2 = 0.1012 | 2.322
x2 = 0.2055 | 1.88
x2 = 0.3024 | 1.551
x2 = 0.4124 | 1.26
x2 = 0.511 | 1.057
x2 = 0.6016 | 0.9052
x2 = 0.706 | 0.7704
x2 = 0.8037 | 0.6783
x2 = 0.8987 | 0.6131

CCCCCC + Cc1ccccc1
Settings | viscosity
298.15 K, 101 kPa, x1 = 0.1 | 0.5021 mPa·s
298.15 K, 101 kPa, x1 = 0.121 | 0.504 mPa·s
298.15 K, 101 kPa, x1 = 0.2 | 0.4602 mPa·s
298.15 K, 101 kPa, x1 = 0.211 | 0.471 mPa·s
298.15 K, 101 kPa, x1 = 0.299 | 0.443 mPa·s
298.15 K, 101 kPa, x1 = 0.3 | 0.4254 mPa·s
298.15 K, 101 kPa, x1 = 0.4 | 0.3964 mPa·s
298.15 K, 101 kPa, x1 = 0.5 | 0.372 mPa·s
298.15 K, 101 kPa, x1 = 0.6 | 0.3513 mPa·s and 0.37 mPa·s
298.15 K, 101 kPa, x1 = 0.7 | 0.3336 mPa·s
298.15 K, 101 kPa, x1 = 0.712 | 0.349 mPa·s
298.15 K, 101 kPa, x1 = 0.799 | 0.335 mPa·s
298.15 K, 101 kPa, x1 = 0.8 | 0.3186 mPa·s
298.15 K, 101 kPa, x1 = 0.9 | 0.3059 mPa·s
298.15 K, 101 kPa, x2 = 0.1483 | 0.321 mPa·s
298.15 K, 101 kPa, x2 = 0.1826 | 0.333 mPa·s
298.15 K, 101 kPa, x2 = 0.2169 | 0.34 mPa·s
298.15 K, 101 kPa, x2 = 0.2524 | 0.348 mPa·s
298.15 K, 101 kPa, x2 = 0.2897 | 0.36 mPa·s
298.15 K, 101 kPa, x2 = 0.3286 | 0.366 mPa·s
298.15 K, 101 kPa, x2 = 0.3707 | 0.377 mPa·s
298.15 K, 101 kPa, x2 = 0.4105 | 0.3865 mPa·s
298.15 K, 101 kPa, x2 = 0.4556 | 0.3985 mPa·s
298.15 K, 101 kPa, x2 = 0.5039 | 0.4115 mPa·s
298.15 K, 101 kPa, x2 = 0.552 | 0.426 mPa·s
298.15 K, 101 kPa, x2 = 0.6002 | 0.44 mPa·s
298.15 K, 101 kPa, x2 = 0.6539 | 0.457 mPa·s
298.15 K, 101 kPa, x2 = 0.6976 | 0.471 mPa·s
298.15 K, 101 kPa, x2 = 0.7444 | 0.486 mPa·s
298.23 K, 100 kPa, x1 = 0.5 | 0.3708 mPa·s
298.28 K, 100 kPa, x1 = 0.25 | 0.4404 mPa·s
298.3 K, 100 kPa, x1 = 0.75 | 0.3227 mPa·s
303.15 K, 101.33 kPa, x1 = 0.0826 | 0.4983 mPa·s
303.15 K, 101.33 kPa, x1 = 0.1685 | 0.4637 mPa·s
303.15 K, 101.33 kPa, x1 = 0.2578 | 0.4362 mPa·s
303.15 K, 101.33 kPa, x1 = 0.3509 | 0.4117 mPa·s
303.15 K, 101.33 kPa, x1 = 0.4477 | 0.3884 mPa·s
303.15 K, 101.33 kPa, x1 = 0.5487 | 0.3671 mPa·s
303.15 K, 101.33 kPa, x1 = 0.6541 | 0.3492 mPa·s
303.15 K, 101.33 kPa, x1 = 0.7643 | 0.3299 mPa·s
303.15 K, 101.33 kPa, x1 = 0.8795 | 0.3136 mPa·s
308.15 K, 101 kPa, x1 = 0.121 | 0.448 mPa·s
308.15 K, 101 kPa, x1 = 0.211 | 0.42 mPa·s
308.15 K, 101 kPa, x1 = 0.299 | 0.395 mPa·s
308.15 K, 101 kPa, x1 = 0.448 | 0.361 mPa·s
308.15 K, 101 kPa, x1 = 0.6 | 0.332 mPa·s
308.15 K, 101 kPa, x1 = 0.712 | 0.314 mPa·s
308.15 K, 101 kPa, x1 = 0.799 | 0.302 mPa·s
313.15 K, 101.33 kPa, x1 = 0.0826 | 0.4542 mPa·s
313.15 K, 101.33 kPa, x1 = 0.1685 | 0.4265 mPa·s
313.15 K, 101.33 kPa, x1 = 0.2578 | 0.4033 mPa·s
313.15 K, 101.33 kPa, x1 = 0.3509 | 0.3782 mPa·s
313.15 K, 101.33 kPa, x1 = 0.4477 | 0.3592 mPa·s
313.15 K, 101.33 kPa, x1 = 0.5487 | 0.3375 mPa·s
313.15 K, 101.33 kPa, x1 = 0.6541 | 0.3202 mPa·s
313.15 K, 101.33 kPa, x1 = 0.7643 | 0.3043 mPa·s
313.15 K, 101.33 kPa, x1 = 0.8795 | 0.2896 mPa·s
323.15 K, 101 kPa, x1 = 0.121 | 0.382 mPa·s
323.15 K, 101 kPa, x1 = 0.211 | 0.36 mPa·s
323.15 K, 101 kPa, x1 = 0.299 | 0.341 mPa·s
323.15 K, 101 kPa, x1 = 0.448 | 0.314 mPa·s
323.15 K, 101 kPa, x1 = 0.6 | 0.292 mPa·s
323.15 K, 101 kPa, x1 = 0.712 | 0.278 mPa·s
323.15 K, 101 kPa, x1 = 0.799 | 0.255 mPa·s
323.15 K, 101.33 kPa, x1 = 0.0826 | 0.4006 mPa·s
323.15 K, 101.33 kPa, x1 = 0.1685 | 0.3747 mPa·s
323.15 K, 101.33 kPa, x1 = 0.2578 | 0.3545 mPa·s
323.15 K, 101.33 kPa, x1 = 0.3509 | 0.3354 mPa·s
323.15 K, 101.33 kPa, x1 = 0.4477 | 0.3184 mPa·s
323.15 K, 101.33 kPa, x1 = 0.5487 | 0.3022 mPa·s
323.15 K, 101.33 kPa, x1 = 0.6541 | 0.2867 mPa·s
323.15 K, 101.33 kPa, x1 = 0.7643 | 0.2736 mPa·s
323.15 K, 101.33 kPa, x1 = 0.8795 | 0.262 mPa·s

CCCCCOC(C)=O + CC(=O)OCc1ccccc1
Settings | viscosity [mPa·s]
298.15 K, 101 kPa, x1 = 0.5 | 0.9738

O=C(O)C(=O)O + C[N+](C)(C)CCO.[Cl-]
viscosity [mPa·s], x2 = 0.5
Settings | 293.15 K | 293.2 K | 298.15 K | 303.2 K | 308.15 K | 313.2 K | 318.15 K
100 kPa | 15680 | – | 8953 | – | 3332 | – | 1421
101.3 kPa | – | 7595 | – | 4359 | – | 2174 | –

CC1CCCO1 (stereo not drawn) + O=C1CCCC1
298.15 K, 101 kPa
Settings | viscosity [mPa·s]
x1 = 0.0212 | 1.103
x1 = 0.0637 | 1.061
x1 = 0.1277 | 1.001
x1 = 0.1917 | 0.944
x1 = 0.2563 | 0.89
x1 = 0.3212 | 0.84
x1 = 0.3856 | 0.792
x1 = 0.4507 | 0.747
x1 = 0.5157 | 0.705
x1 = 0.5812 | 0.665
x1 = 0.6466 | 0.628
x1 = 0.7069 | 0.596
x1 = 0.7785 | 0.56
x1 = 0.8445 | 0.529
x1 = 0.9107 | 0.5
x1 = 0.9775 | 0.472
